Where a SMILES comes first, the peptide text is derived from it. [ ]: non-standard residue; d: D form. 1Nal = N[C@@H](Cc1cccc2ccccc12)C(=O)O; NMeNle = CCCC[C@H](NC)C(=O)O; Sar = CNCC(=O)O
Biological target: T1, human CCK2R (Homo sapiens, UniProt P32239)
T1 construct: stably transfected to over-express the human full-length CCK2R (A431-CCK2R); expressed in transfected cells
T1 sequence (P32239 1-447): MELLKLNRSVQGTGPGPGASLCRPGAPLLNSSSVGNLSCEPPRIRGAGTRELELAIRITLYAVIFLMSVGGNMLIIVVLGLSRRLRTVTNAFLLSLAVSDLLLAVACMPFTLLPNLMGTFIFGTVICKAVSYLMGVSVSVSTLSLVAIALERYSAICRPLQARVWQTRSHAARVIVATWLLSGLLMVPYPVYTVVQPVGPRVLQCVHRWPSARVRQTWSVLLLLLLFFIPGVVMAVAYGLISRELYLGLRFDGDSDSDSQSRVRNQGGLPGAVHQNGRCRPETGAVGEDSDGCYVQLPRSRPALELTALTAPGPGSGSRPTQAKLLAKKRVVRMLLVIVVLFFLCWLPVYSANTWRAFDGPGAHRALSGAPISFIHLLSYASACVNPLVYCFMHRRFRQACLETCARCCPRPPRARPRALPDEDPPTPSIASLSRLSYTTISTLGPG
Assay: Competitive binding against [177Lu]Lu-DOTA-CP04 in A431-CCK2R cells
Settings: for IC50: N-terminal free linear peptides, vs [177Lu]Lu-DOTA-CP04 in A431-CCK2R cells, average of 2-4 biological replicates, read-out: IC50
Method: Materials and Methods: Biology […]
In Vitro CCK2R-Ligand Competitive Binding Assays
All CCK2R binding experiments were conducted using A431 (human epidermoid carcinoma) […]
cells stably transfected to over-express the human full-length CCK2R (A431-CCK2R) (gifted […]
by Dr. Elisabeth von Guggenberg, Medizinische Universität Innsbruck).[41] As a negative […]
control, A431 cells stably transfected with an empty vector were analysed simultaneously […]
(A431-EV). All A431 cells were maintained in DMEM (Gibco, Australia) media supplemented […]
with 10% foetal calf serum and 250 µg/mL G418 as described previously.[32]
The affinity of all peptides for the CCK2R was evaluated using competitive binding assays […]
Briefly, 48 hours before the experiment […]
cells were plated at a density of 300,000 cells per well in 12 well plates. On the day of the […]
experiment, linear peptides were diluted in DMEM supplemented with 1% foetal calf serum to […]
DOTA-CP04 was added to each dilution. Cells were washed twice in ice-cold binding buffer […]
(DMEM supplemented with 1% foetal calf serum) and resuspended in 1 mL of the pre-prepared […]
peptide mix before being incubated at room temperature for 1 hour. Post-incubation the media […]
was removed and kept for analysis (unbound fraction) and the cells were washed twice in ice- […]
cold PBS which was pooled with the unbound fraction. Finally, 1 M NaOH (150µL) was added […]
to the wells and allowed to incubate for 5 min before lysates were collected (bound fraction).
A small volume of lysate was kept aside to determine protein concentration using the Pierce® BCA protein assay kit (Thermo Fisher, Australia). All samples were analysed using the Perkin […]
normalised according to protein concentration. Half maximal inhibitory concentration (IC50) was determined using nonlinear regression calculated using Gr aphPad Prism Software (GraphPad Software, California, USA). […]

IC50 [nM]	SMILES	fold improvement of activity over CP04 (linear peptides)	fold improvement of affinity over GA1 (linear peptides) [fold]
1.62	CCCC[C@@H](C(=O)N[C@@H](CC(=O)O)C(=O)N[C@@H](Cc1cccc2ccccc12)C(N)=O)N(C)C(=O)[C@H](Cc1c[nH]c2ccccc12)NC(=O)CN(C)C(=O)[C@H](Cc1ccc(O)cc1)NC(=O)[C@H](C)NC(=O)[C@@H](CCC(=O)O)NC(=O)[C@@H](CCC(=O)O)NC(=O)[C@@H](C)NC(=O)[C@@H](CCC(=O)O)NC(=O)[C@@H](CCC(=O)O)NC(=O)[C@H](N)CCC(=O)O [GA8] (H-[dE][dE][dE][dA][dE][dE]AY[Sar]W[NMeNle]D[1Nal]-NH2)		
1.62	CCCC[C@@H](C(=O)N[C@@H](CC(=O)O)C(=O)N[C@@H](Cc1cccc2ccccc12)C(N)=O)N(C)C(=O)[C@H](Cc1c[nH]c2ccccc12)NC(=O)CN(C)C(=O)[C@H](Cc1ccc(O)cc1)NC(=O)[C@H](C)NC(=O)[C@@H](C)NC(=O)[C@@H](CCC(=O)O)NC(=O)[C@@H](CCC(=O)O)NC(=O)[C@@H](CCC(=O)O)NC(=O)[C@@H](CCC(=O)O)NC(=O)[C@H](N)CCC(=O)O [GA10] (H-[dE][dE][dE][dE][dE][dA]AY[Sar]W[NMeNle]D[1Nal]-NH2)		
1.23	CCCC[C@@H](C(=O)N[C@@H](CC(=O)O)C(=O)N[C@@H](Cc1cccc2ccccc12)C(N)=O)N(C)C(=O)[C@H](Cc1c[nH]c2ccccc12)NC(=O)CN(C)C(=O)[C@H](Cc1ccc(O)cc1)NC(=O)[C@H](C)NC(=O)[C@@H](CCC(=O)O)NC(=O)[C@@H](CCC(=O)O)NC(=O)[C@@H](CCC(=O)O)NC(=O)[C@@H](CCC(=O)O)NC(=O)[C@@H](C)NC(=O)[C@H](N)CCC(=O)O [GA6] (H-[dE][dA][dE][dE][dE][dE]AY[Sar]W[NMeNle]D[1Nal]-NH2)		

SMILES	IC50 [nM]	fold improvement of activity over CP04 (linear peptides)	fold improvement of affinity over GA1 (linear peptides) [fold]
CCCC[C@@H](C(=O)N[C@@H](CC(=O)O)C(=O)N[C@@H](Cc1cccc2ccccc12)C(N)=O)N(C)C(=O)[C@H](Cc1c[nH]c2ccccc12)NC(=O)CN(C)C(=O)[C@H](Cc1ccc(O)cc1)NC(=O)[C@H](C)NC(=O)[C@@H](CCC(=O)O)NC(=O)[C@@H](CCC(=O)O)NC(=O)[C@@H](CCC(=O)O)NC(=O)[C@@H](C)NC(=O)[C@@H](CCC(=O)O)NC(=O)[C@H](N)CCC(=O)O [GA7] (H-[dE][dE][dA][dE][dE][dE]AY[Sar]W[NMeNle]D[1Nal]-NH2)	0.184	greater than 10 fold	~2
